Source: the supplement of paper PMC10627819

Tests used:
S. aureus Newman [1] = assay: Bliss interaction score (quartile over a dose matrix) (fitness difference); higher = more antagonism (negative = synergy)
How it was run: (§1)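 Growth was read as OD595 when cultures entered stationary phase, and each value was divided by the plate's robust no-drug mean and capped at 1. This normalised ratio is the fitness value, and fitness for each single drug came from the combination data. The Bliss score subtracts the expected fitness, taken as the product, from the observed fitness and is given as quartiles across technical, biological and donor/recipient replicates.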

S. pneumoniae D39V [2] = assay: as above
How it was run: as §1

B. subtilis 168 [3] = assay: as above
How it was run: as §1

S. aureus DSM 20231 [4] = assay: as above
How it was run: as §1

S. aureus Newman [5] = assay: fitness (endpoint OD595 vs no drug) (fraction); higher = more growth
How it was run: (§2)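 Fitness is computed from the optical density at which cultures reach stationary phase, divided by the robust mean of no-drug control wells. Any value above 1 is set to 1. Cultures started at OD595 0.01 in 384-well plates with TSB, LB Lennox or CY at 37 °C, and OD595 was read every 30 min for 14 h against a first-reading background.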

S. pneumoniae D39V [6] = assay: as above
How it was run: as §2

B. subtilis 168 [7] = assay: as above
How it was run: as §2

S. aureus DSM 20231 [8] = assay: as above
How it was run: as §2

[9] = first compound 0.125 µg/mL, partner 4 µg/mL
[10] = first compound 0.125 µg/mL, partner 8 µg/mL
[11] = first compound 0.125 µg/mL, partner 16 µg/mL
[12] = first compound 0.125 µg/mL, partner 32 µg/mL, one replicate
[13] = first compound 0.125 µg/mL, partner 64 µg/mL, one replicate
[14] = first compound 0.25 µg/mL, partner 4 µg/mL
[15] = first compound 0.25 µg/mL, partner 8 µg/mL
[16] = first compound 0.25 µg/mL, partner 16 µg/mL
[17] = first compound 0.25 µg/mL, partner 32 µg/mL, one replicate
[18] = first compound 0.25 µg/mL, partner 64 µg/mL, one replicate
[19] = first compound 0.5 µg/mL, partner 4 µg/mL
[20] = first compound 0.5 µg/mL, partner 8 µg/mL
[21] = first compound 0.5 µg/mL, partner 16 µg/mL
[22] = first compound 0.5 µg/mL, partner 32 µg/mL, one replicate
[23] = first compound 0.5 µg/mL, partner 64 µg/mL, one replicate
[24] = first compound 1 µg/mL, partner 4 µg/mL
[25] = first compound 1 µg/mL, partner 8 µg/mL
[26] = first compound 1 µg/mL, partner 16 µg/mL
[27] = first compound 2 µg/mL, partner 4 µg/mL
[28] = first compound 2 µg/mL, partner 8 µg/mL
[29] = first compound 2 µg/mL, partner 16 µg/mL
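Throughout, for Bliss interaction score (quartile over a dose matrix): first quartile when negative (synergy) and third quartile when positive (antagonism).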
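Throughout, for fitness (endpoint OD595 vs no drug): OD595 on entry to stationary phase over no-drug wells; at most 1.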

CCCCCCCCCC(=O)N[C@@H](Cc1c[nH]c2ccccc12)C(=O)N[C@H](CC(N)=O)C(=O)N[C@@H](CC(=O)O)C(=O)N[C@@H]1C(=O)NCC(=O)N[C@@H](CCCN)C(=O)N[C@@H](CC(=O)O)C(=O)N[C@H](C)C(=O)N[C@@H](CC(=O)O)C(=O)NCC(=O)N[C@H](CO)C(=O)N[C@@H]([C@H](C)CC(=O)O)C(=O)N[C@@H](CC(=O)c2ccccc2N)C(=O)O[C@@H]1C [Daptomycin] + CN[C@@H]1[C@H](O)[C@H](NC)[C@H]2O[C@@]3(O)C(=O)C[C@@H](C)O[C@H]3O[C@@H]2[C@H]1O [Spectinomycin]
Bliss interaction score (S. aureus Newman [1]): 0.0696
Bliss interaction score (S. pneumoniae D39V [2]): 0.0673
Bliss interaction score (B. subtilis 168 [3]): 0.0649
Bliss interaction score (S. aureus DSM 20231 [4]): 0.0629
fitness (S. aureus Newman [5]; [9]): 0.963
fitness (S. aureus Newman [5]; [10]): 0.991
fitness (S. aureus Newman [5]; [11]): 0.915
fitness (S. aureus Newman [5]; [12]): 0.595
fitness (S. aureus Newman [5]; [13]): 0.0775
fitness (S. aureus Newman [5]; [14]): 0.932
fitness (S. aureus Newman [5]; [15]): 0.983
fitness (S. aureus Newman [5]; [16]): 0.917
fitness (S. aureus Newman [5]; [17]): 0.63
fitness (S. aureus Newman [5]; [18]): 0.0532
fitness (S. aureus Newman [5]; [19]): 0.924
fitness (S. aureus Newman [5]; [20]): 0.952
fitness (S. aureus Newman [5]; [21]): 0.905
fitness (S. aureus Newman [5]; [22]): 0.626
fitness (S. aureus Newman [5]; [23]): 0.0675
fitness (S. pneumoniae D39V [6]; [24]): 0.92
fitness (S. pneumoniae D39V [6]; [25]): 0.817
fitness (S. pneumoniae D39V [6]; [26]): 0.554
fitness (S. pneumoniae D39V [6]; [27]): 0.943
fitness (S. pneumoniae D39V [6]; [28]): 0.856
fitness (S. pneumoniae D39V [6]; [29]): 0.569
fitness (S. pneumoniae D39V [6]; first compound 4 µg/mL, partner 4 µg/mL): 0.941
fitness (S. pneumoniae D39V [6]; first compound 4 µg/mL, partner 8 µg/mL): 0.847
fitness (S. pneumoniae D39V [6]; first compound 4 µg/mL, partner 16 µg/mL): 0.546
fitness (B. subtilis 168 [7]; first compound 0.125 µg/mL, partner 2 µg/mL): 0.934
fitness (B. subtilis 168 [7]; [9]): 0.964
fitness (B. subtilis 168 [7]; [10]): 0.863
fitness (B. subtilis 168 [7]; first compound 0.25 µg/mL, partner 2 µg/mL): 0.979
fitness (B. subtilis 168 [7]; [14]): 0.946
fitness (B. subtilis 168 [7]; [15]): 0.944
fitness (B. subtilis 168 [7]; first compound 0.5 µg/mL, partner 2 µg/mL): 0.836
fitness (B. subtilis 168 [7]; [19]): 0.813
fitness (B. subtilis 168 [7]; [20]): 0.835
fitness (B. subtilis 168 [7]; first compound 1 µg/mL, partner 2 µg/mL, one replicate): 0.704
fitness (B. subtilis 168 [7]; first compound 1 µg/mL, partner 4 µg/mL, one replicate): 0.71
fitness (B. subtilis 168 [7]; first compound 1 µg/mL, partner 8 µg/mL, one replicate): 0.751
fitness (S. aureus DSM 20231 [8]; first compound 0.125 µg/mL, partner 4 µg/mL, one replicate): 0.935
fitness (S. aureus DSM 20231 [8]; first compound 0.125 µg/mL, partner 8 µg/mL, one replicate): 0.988
fitness (S. aureus DSM 20231 [8]; [11]): 0.852
fitness (S. aureus DSM 20231 [8]; [12]): 0.767
fitness (S. aureus DSM 20231 [8]; [13]): 0.0669
fitness (S. aureus DSM 20231 [8]; first compound 0.25 µg/mL, partner 4 µg/mL, one replicate): 0.977
fitness (S. aureus DSM 20231 [8]; first compound 0.25 µg/mL, partner 8 µg/mL, one replicate): 0.998
fitness (S. aureus DSM 20231 [8]; [16]): 0.872
fitness (S. aureus DSM 20231 [8]; [17]): 0.7
fitness (S. aureus DSM 20231 [8]; [18]): 0.0927
fitness (S. aureus DSM 20231 [8]; [19]): ≥ 1
fitness (S. aureus DSM 20231 [8]; [20]): ≥ 1
fitness (S. aureus DSM 20231 [8]; [21]): 0.905
fitness (S. aureus DSM 20231 [8]; [22]): 0.745
fitness (S. aureus DSM 20231 [8]; [23]): 0.079
fitness (S. aureus DSM 20231 [8]; [24]): 0.978
fitness (S. aureus DSM 20231 [8]; [25]): 0.96
fitness (S. aureus DSM 20231 [8]; [26]): 0.931
fitness (S. aureus DSM 20231 [8]; [27]): 0.964
fitness (S. aureus DSM 20231 [8]; [28]): 0.946
fitness (S. aureus DSM 20231 [8]; [29]): 0.866
